{"source": "ChEMBL document CHEMBL5108004", "about": "“An auristatin-based peptide-drug conjugate targeting Kita-Kyushu lung cancer antigen 1 for precision chemoradiotherapy in gastric cancer” (Eur J Med Chem, 2022)", "key": {"MKN-45 [1]": {"test_system": "MKN-45", "experiment": "Cell cycle arrest in KK-LC-1-positive human MKN-45 cells assessed as increase accumulation at G2/M phase at 20 to 100 nM measured after 24 hrs by propidium iodide staining based flow cytometric analysis", "format": "functional", "conditions": "dose 20-100 nM, DDE = dose-dependent effect"}, "[2]": {"experiment": "Biodistribution in tumor of nude mouse xenografted with KK-LC-1-positive human NUGC-4 cells using Cy5-labeled compound at 10 nmol, iv and measured after 24 hrs by near-infrared imaging method", "format": "ADME, organism-based, Neoplasm", "conditions": "in vivo"}, "[3]": {"biological_target": "T1, Kita-kyushu lung cancer antigen 1 (Homo sapiens) (UniProt Q5H943)", "T1 sequence (whole entry)": "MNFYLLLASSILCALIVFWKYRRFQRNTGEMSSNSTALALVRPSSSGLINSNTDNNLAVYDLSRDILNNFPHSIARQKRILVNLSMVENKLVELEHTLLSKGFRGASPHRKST", "experiment": "Binding affinity to KK-LC-1 in KK-LC-1-positive human NUGC-4 cells using FITC-labeled compound at 1 to 1000 uM incubated for 30 mins and measured by flow cytometry assay", "format": "cell-based", "conditions": "dose 1-1000 µM"}, "[4]": {"experiment": "Toxicity in male BALB/c nude mouse xenografted with KK-LC-1-positive human MKN-45 cells assessed as body weight loss at 0.3 mg/kg, iv administered twice a week for 3 weeks", "format": "organism-based", "conditions": "in vivo, 504 h"}, "[5]": {"biological_target": "T1, Kita-kyushu lung cancer antigen 1 (Homo sapiens)", "experiment": "Binding affinity to KK-LC-1 in KK-LC-1-positive human MKN-45 cells using FITC-labeled compound at 1 to 1000 uM incubated for 30 mins and measured by flow cytometry assay", "format": "cell-based", "conditions": "dose 1-1000 µM"}, "[6]": {"experiment": "Toxicity in male BALB/c nude mouse xenografted with KK-LC-1-positive human MKN-45 cells administered intravenously twice a week for 3 weeks", "conditions": "in vivo, route iv"}, "MKN-45 [7]": {"test_system": "MKN-45", "experiment": "Antitumor activity against KK-LC-1-positive human MKN-45 cells xenografted in male BALB/c nude mouse assessed as induction of tumor regression at 2 mg/kg, iv administered twice a week for 3 weeks", "format": "functional, organism-based"}, "NUGC-4 [8]": {"test_system": "NUGC-4", "experiment": "Cell cycle arrest in KK-LC-1-positive human NUGC-4 cells assessed as accumulation at G2/M phase at 40 nM measured after 24 hrs by propidium iodide staining based flow cytometric analysis (reference value: 21.5 +/- 0.7 %)", "format": "functional"}, "[9]": {"experiment": "Drug uptake in KK-LC-1-positive human NUGC-4 cells using FITC-labeled compound at 100 uM incubated for 10 to 70 mins and assessed as drug internalization measured by DAPI staining method", "format": "ADME, cell-based", "conditions": "nugc-4, 100 µM, time 10-70 min"}, "[10]": {"experiment": "Toxicity in male BALB/c nude mouse xenografted with KK-LC-1-positive human NUGC-4 cells assessed as effect on body weight at 0.3 mg/kg, iv administered once a week for 3 weeks followed by exposure to 2 Gy gamma irradiation for 2 consecutive days once a week for 3 weeks", "format": "organism-based", "conditions": "in vivo, 504 h"}, "[11]": {"experiment": "Toxicity in male BALB/c nude mouse xenografted with KK-LC-1-positive human NUGC-4 cells assessed as median survival time at 0.3 mg/kg, iv administered once a week for 3 weeks followed by exposure to 2 Gy gamma irradiation for 2 consecutive days once a week for 3 weeks measured after 47 days", "format": "organism-based", "conditions": "in vivo, 504 h"}, "[12]": {"experiment": "Toxicity in male BALB/c nude mouse xenografted with KK-LC-1-positive human MKN-45 cells assessed as increase in survival of mouse at 0.3 mg/kg, iv administered twice a week for 3 weeks", "format": "organism-based", "conditions": "in vivo, 504 h"}, "[13]": {"experiment": "Toxicity in male BALB/c nude mouse xenografted with KK-LC-1-positive human MKN-45 cells assessed as effect on kidney function at 1 mg/kg, iv administered twice a week for 3 weeks", "format": "organism-based", "conditions": "in vivo, 504 h"}, "[14]": {"experiment": "Stability in human plasma assessed as compound remaining at 500 uM measured after 48 hrs by HPLC analysis", "format": "ADME, cell-free", "conditions": "read-out: Stability"}, "MKN-45 [15]": {"test_system": "MKN-45", "experiment": "Antitumor activity against KK-LC-1-positive human MKN-45 cells xenografted in male BALB/c nude mouse assessed as reduction in tumor growth at 0.3 mg/kg, iv administered twice a week for 3 weeks", "format": "functional, organism-based"}, "NUGC-4 [16]": {"test_system": "NUGC-4", "experiment": "Induction of mitotic arrest in KK-LC-1-positive human NUGC-4 cells xenografted in nude mouse assessed as number of pHH3-positive nuclei in tumor at 4 nmol, iv administered as single dose and measured after 24 hrs by pHH3 immunohistochemical staining method relative to control", "format": "functional"}, "HGC-27": {"test_system": "HGC-27", "experiment": "Cytotoxicity against KK-LC-1-negative human HGC-27 cells incubated for 72 hrs by CCK-8 assay", "format": "functional, cell-based", "conditions": "HGC-27, 72 h"}, "NUGC-4 [17]": {"test_system": "NUGC-4", "experiment": "Induction of apoptosis in KK-LC-1-positive human NUGC-4 cells at 100 nM incubated for 24 hrs followed by exposure to 2 Gy gamma irradiation by AnnexinV/PI-staining based flow cytometry", "format": "functional, cell-based"}, "[18]": {"experiment": "Toxicity in male BALB/c nude mouse xenografted with KK-LC-1-positive human MKN-45 cells assessed as effect on liver function at 2 mg/kg, iv administered twice a week for 3 weeks", "format": "organism-based", "conditions": "in vivo, 504 h"}, "NUGC-4 [19]": {"test_system": "NUGC-4", "experiment": "Cytotoxicity against KK-LC-1-positive human NUGC-4 cells incubated for 72 hrs by CCK-8 assay", "format": "functional, cell-based", "conditions": "NUGC-4, 72 h"}, "MKN-45 [20]": {"test_system": "MKN-45", "experiment": "Antitumor activity against KK-LC-1-positive human MKN-45 cells xenografted in male BALB/c nude mouse assessed as reduction in tumor volume at 0.3 mg/kg, iv administered twice a week for 3 weeks", "format": "functional", "design": "scale not given: the % may be the effect or the level left"}, "NUGC-4 [21]": {"test_system": "NUGC-4", "experiment": "Cell cycle arrest in KK-LC-1-positive human NUGC-4 cells assessed as increase accumulation at G2/M phase at 100 nM measured after 0 to 48 hrs by propidium iodide staining based flow cytometric analysis", "format": "functional", "conditions": "time 0-48 hrs, TDE = time-dependent effect"}, "[22]": {"experiment": "Ratio IC50 for cytotoxicity against KK-LC-1-negative human HGC-27 cells to IC50 for cytotoxicity against KK-LC-1-positive human MKN-45 cells"}, "[23]": {"experiment": "Toxicity in male BALB/c nude mouse xenografted with KK-LC-1-positive human MKN-45 cells assessed as body weight loss at 3 mg/kg, iv administered twice a week for 3 weeks", "format": "organism-based", "conditions": "in vivo, 504 h"}, "MKN-45 [24]": {"test_system": "MKN-45", "experiment": "Antitumor activity against KK-LC-1-positive human MKN-45 cells xenografted in male BALB/c nude mouse assessed as induction of tumor regression at 1 mg/kg, iv administered twice a week for 3 weeks", "format": "functional, organism-based"}}, "note": "Active and inactive are the calls of the source. No cut-off for these calls is given here. *1 amine or outer side, *2 acyl side, *3 side chain or, on linkers, in order; H or OH if unused. Where a SMILES comes first, the peptide text is derived from it. Bridges are numbered along the chain shown (N, C = ends). Roman numbers before positions name the chains, in order. [ ]: non-standard residue; d: D form. The star is where a group is joined. Hexanoyl(6-succinimido-3yl) = O=C1CC([*:1])C(=O)N1CCCCCC(=O)[*:2]; Dolaproine = CO[C@@H]([C@@H]1CCCN1)[C@@H](C)C(=O)O; Dil = CC[C@H](C)[C@H](NC)[C@@H](CC(=O)O)OC; PABC = O=C(OCc1ccc(N[*:1])cc1)[*:2]; X1 = C[C@@H](N*)[C@@H](O)c1ccccc1; Cit = NC(=O)NCCC[C@H](N)C(=O)O; NMeV = CN[C@H](C(=O)O)C(C)C", "data": [{"smiles": "CC[C@H](C)[C@@H]([C@@H](CC(=O)N1CCC[C@H]1[C@H](OC)[C@@H](C)C(=O)N[C@H](C)[C@@H](O)c1ccccc1)OC)N(C)C(=O)[C@@H](NC(=O)[C@@H](NC(=O)[C@H](C(C)C)N(C)C(=O)OCc1ccc(NC(=O)[C@H](CCCNC(N)=O)NC(=O)[C@@H](NC(=O)CCCCCN2C(=O)CC(SC[C@H](N)C(=O)N[C@H]3CSSC[C@@H](C(=O)O)NC(=O)[C@H]([C@@H](C)O)NC(=O)[C@H]([C@@H](C)O)NC(=O)[C@H](CC(C)C)NC(=O)[C@H](C)NC(=O)[C@H]([C@@H](C)O)NC(=O)[C@H](CC(N)=O)NC(=O)[C@H](CCCCN)NC3=O)C2=O)C(C)C)cc1)C(C)C)C(C)C", "note": "(stereo not given in full) (I: H-CCKNTALTTC-OH / II: V[Cit][PABC][NMeV]VV[Dil][Dolaproine]-X1; linker I:1-II:N via Hexanoyl(6-succinimido-3yl); disulfide I:2-I:10)", "values": [{"measurement": "Activity", "setting": "MKN-45 [1]", "result": "Dde"}, {"measurement": "Drug uptake", "setting": "[2]", "result": "Active"}, {"measurement": "Activity", "setting": "[3]", "result": "Active"}, {"measurement": "Activity", "setting": "[4]", "result": "Non-Toxic"}, {"measurement": "Activity", "setting": "[5]", "result": "Active"}, {"measurement": "MTD at 504 h", "setting": "[6]", "result": 2, "unit": "mg/kg"}, {"measurement": "Activity", "setting": "MKN-45 [7]", "result": "Active"}, {"measurement": "Activity", "setting": "NUGC-4 [8]", "result": 49.53, "unit": "%"}, {"measurement": "Drug uptake", "setting": "[9]", "result": "Active"}, {"measurement": "Activity", "setting": "[10]", "result": "Non-Toxic"}, {"measurement": "MST", "setting": "[11]", "result": 58, "unit": "days"}, {"measurement": "Activity", "setting": "[12]", "result": "Non-Toxic"}, {"measurement": "Activity", "setting": "[13]", "result": "Non-Toxic"}, {"measurement": "remaining at 48 h, 500 µM", "setting": "[14]", "result": 13.2, "unit": "%"}, {"measurement": "Activity", "setting": "MKN-45 [15]", "result": "Active"}, {"measurement": "Activity", "setting": "NUGC-4 [16]", "result": 87}, {"measurement": "IC50", "setting": "HGC-27", "result": 786, "unit": "nM"}, {"measurement": "Activity", "setting": "NUGC-4 [17]", "result": "Active"}, {"measurement": "Activity", "setting": "[18]", "result": "Non-Toxic"}, {"measurement": "IC50", "setting": "NUGC-4 [19]", "result": 3.87, "unit": "nM"}, {"measurement": "Activity", "setting": "MKN-45 [20]", "result": 48.5, "unit": "%"}, {"measurement": "Activity", "setting": "NUGC-4 [21]", "result": "Tde"}, {"measurement": "Ratio IC50", "setting": "[22]", "result": 100}, {"measurement": "Activity", "setting": "[23]", "result": "Toxic"}, {"measurement": "Activity", "setting": "MKN-45 [24]", "result": "Active"}]}]}
